Key:
[1] = biological target: T1, CXCR4 receptor (Homo sapiens, UniProt P61073); assay: Antagonism of the E-cadherin reducing effect of QSP76 (Western blot, HCT-8 cells); assay type: cell-based; conditions: for relative E-cadherin expression: PBS = 100%
T1 construct: endogenous in cells; host or cells: luciferase transfected HCT-8/E11 cells
Procedure: Western Blot analyses. 1×10^6 luciferase transfected HCT-8/E11 cells were seeded in each well of a 6-well plate. […] After 24 hours, cells were detached from the surface and lysed with Thermo Scientific RIPA-buffer. The protein concentration was then determined using the modified Lowry protein assay kit, according to the manufacturer's instructions. All samples were diluted to the same concentration (i.e. 4 μg/μL) using water and diluted 1:1 using 2× Laemmli buffer. Next, the samples were boiled for 5 min at 95° C. for denaturation, after which centrifugation for 5 min at 16,000 g was performed; the supernatant was then used for Western blot analyses. Therefore, proteins (20 μg) were separated using a Bio-Rad Any kD gel (SDS-PAGE) and transferred to a PVDF membrane. Before the membranes were incubated with antibodies, non-specific binding sites were blocked using 5% skimmed milk solution (1 hour). Western blot was performed using an anti-E-cadherin (1/1000) antibody and incubated overnight at 4° C. Signal intensity was normalized against the total protein content in the lanes. Anti-rabbit-HRP antibody was used for detection (1/2000) (1 hour). Finally, the substrate (5 min) was added and the results were analyzed using the Bio-Rad ChemiDoc EZ imager and Image Lab software. TBS buffer with 0.05% Tween 20 was used for washing between the different steps.

[2] = test system: HCT-8 CRC cells; conditions: cited from earlier work
[3] = test system: luciferase transfected HCT-8/E11 cells; assay: Orthotopic colorectal cancer mouse model; assay type: in vivo, female athymic nude mice (Swiss nu/nu)
Procedure: Orthotopic colorectal cancer mouse model. All in vivo experiments were performed according to the Ethical Committee principles of laboratory animal welfare and approved by our institute (Ghent University, Faculty of Medicine and Health Sciences, approval number ECD 17-90). Mice were maintained in a sterile environment with light, humidity and temperature control (light-dark cycle with light from 7:00 h to 17:00 h, temperature 21-25° C. and humidity 45-65%). Before the experiment, mice were allowed to acclimatize for a minimum of seven days.
Six-weeks old female athymic nude mice (Swiss nu/nu) were anesthetized and a small midline laparotomy executed to localize the caecum. The caecum was then gently exteriorized and luciferase transfected HCT-8/E11 cells (1×10^6 cells) in a volume of 20 μL serum-free DMEM medium with matrigel (1:1) injected into the caecal wall. Cells were previously treated with EntF* (10 nM, 100 nM or 1 μM), Phr0662 (100 nM) or with the vehicle (PBS) or positive control (Transforming Growth Factor α (TGFα), 0.1 μg mL^−1) solution for 5 days before they were implanted in the mice. The caecum was then carefully returned to the abdominal cavity and the laparotomy closed in two layers by sutures of PDS 6/0. Starting from the day after tumour cell injection, mice were daily treated by i.p. injection with vehicle (PBS, n=15), EntF* (10 nmol kg^−1, n=12; 100 nmol kg^−1, n=18; 1 μmol kg^−1, n=8), Phr0662 (100 nmol kg^−1, n=5) or positive control (Epidermal Growth Factor (EGF), 100 μg kg^−1, n=18) for 6 weeks. Once a week, mice were investigated for tumour growth and metastases using bioluminescent imaging with the IVIS Lumina II (Perkin Elmer, Belgium) after i.p. injection with 200 μL luciferin (150 mg kg^−1). After 6 weeks, mice were euthanized using cervical dislocation, followed by macroscopic evaluation of the liver, diaphragm, lungs, caecum, duodenum and peritoneum for the presence of tumour nodules. Liver and lung tissues were then fixed in formalin during 24 h and stored in 70% ethanol for max. 3 days before embedding in paraffin. Afterwards, a haematoxylin & eosin (H&E) staining was performed on 8 μm sections and 3 sections were visualized per mouse using microscopy. The slides of all tumour-bearing mice were scored by two blinded, independent investigators using a scoring system. In the case of a difference in scoring, the slide was scored again by a third blinded, independent investigator for consensus.
Statistical analyses. The Kolmogorov-Smirnov test was used to assess if data obtained were normally distributed. For sample sizes of n<10, non-parametric tests (Mann-Whitney U test) were performed directly. Slope comparison was based on linear regression analysis. Bootstrapped medians and Hedges G-values were used to calculate the effect size.

[4] = after 6 weeks daily i.p. treatment

T1 sequence (P61073 whole entry): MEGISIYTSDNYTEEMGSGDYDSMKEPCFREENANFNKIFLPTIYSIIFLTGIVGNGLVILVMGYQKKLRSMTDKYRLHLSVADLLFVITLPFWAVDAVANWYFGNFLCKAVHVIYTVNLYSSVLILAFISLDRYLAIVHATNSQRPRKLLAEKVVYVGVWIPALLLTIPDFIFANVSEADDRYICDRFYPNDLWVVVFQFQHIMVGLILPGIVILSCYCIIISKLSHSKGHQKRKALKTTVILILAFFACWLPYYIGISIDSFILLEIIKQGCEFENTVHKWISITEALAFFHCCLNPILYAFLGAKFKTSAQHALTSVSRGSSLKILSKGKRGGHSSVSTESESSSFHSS

ANLVECVFSLFKKCN (QSP76S1A) [EntF* antagonist]
antagonistic effect on the in vitro pro-metastatic (E-cadherin reducing) effect of QSP76 ([1]; HCT-8 cells): reduces
relative E-cadherin expression ([1]; mixture of antagonist with 5 μM EntF* (QSP76), HCT-8 cells): 91.8%
Cohen's d effect size of normalisation in E-cadherin expression ([1]; mixture with QSP76 versus QSP76 alone): 0.77

ERNNT [Phr0662]
promotion of angiogenesis and/or tumour cell invasion in vitro [2]: promote in vitro cell invasion
in vivo metastasis-promoting effect ([3]; daily i.p. for 6 weeks): no in vivo metastasis-promoting effects

Epidermal Growth Factor [EGF]
bioluminescence, Bootstrapped median difference (effect size, increase vs PBS) [3, 4]: 316%
bioluminescence, Hedges' g value (vs PBS) [3, 4]: 0.7
bioluminescence, Median [3, 4]: 630
increase in the number of nodules on the caecum compared to PBS ([3]; after 6 weeks treatment): 4.5 fold
number of nodules on the caecum, Hedges' g value (vs PBS) ([3]; after 6 weeks treatment): 0.8
number of nodules on the caecum, Median ([3]; after 6 weeks treatment): 14
number of nodules on the caecum, Bootstrapped median difference ([3]; after 6 weeks treatment, vs PBS): 9
tumour growth (luciferase activity, bioluminescent imaging) compared to vehicle ([3]; weekly imaging during 6 weeks, linear regression slope comparison): significant increase of tumour growth

SNLVECVFSLFKKCN (SNLVECVFSLKKCN; EntF metabolite) [EntF*]
relative E-cadherin expression ([1]; QSP76 alone, HCT-8 cells): 66.0%

Source: patent US20230123148A1, “TARGETING QUORUM-SENSING PEPTIDES FOR DIAGNOSIS, TREATMENT AND/OR PREVENTION OF COLORECTAL CANCER METASTASIS” (UNIVERSITEIT GENT, priority 2020, published 2023)
